Test results published in ChEMBL document CHEMBL3259674, “Structure-Activity Relationship of Semicarbazone EGA Furnishes Photoaffinity Inhibitors of Anthrax Toxin Cellular Entry” (ACS Med Chem Lett, 2014).
The source made the active and inactive calls. No cut-off for these calls is given here.

Each compound was assayed against T1, Antrax lethal toxin (Bacillus anthracis) (UniProt P15917+P13423). Settings: RAW264.7, at 25 µM.
For Cc1cccc(C)c1NC(=S)N/N=C/c1ccc(Br)cc1F, the inhibition was “inactive”.
CC(C)(C)NC(=O)N/N=C/c1ccc(Br)cc1 was tested, and the inhibition was “inactive”.
COc1cc(OC)c(/C=N/NC(=O)Nc2c(C)cccc2C)c(OC)c1 was tested, and the inhibition was “inactive”.
O=C(N/N=C/c1ccc(Cl)cc1)Nc1ccccc1 was tested, and the inhibition was “inactive”.
Cc1cccc(C)c1NC(=O)N/N=C/c1ccncc1 was tested, and the inhibition was “inactive”.
C#CCN(/N=C/c1ccc(N=[N+]=[N-])cc1)C(=O)Nc1c(C)cccc1C was tested, and the inhibition was “inactive”.
With Cc1ccccc1/C=N/NC(=O)Nc1c(C)cccc1C the inhibition was “inactive”.
For Cc1cccc(C)c1NC(=O)N/N=C/c1ccc(NS(C)(=O)=O)cc1, the inhibition was “inactive”.
With Cc1cccc(C)c1NC(=O)N/N=C/c1ccco1 the inhibition was “inactive”.
For Cc1ccc(NC(=O)N/N=C/c2ccc(Br)cc2)c(C)c1, the inhibition was “inactive”.
For Cc1cccc(C)c1NC(=O)N/N=C/c1cccc(C(F)(F)F)c1Cl, the inhibition was “inactive”.
COc1cccc(/C=N/NC(=O)Nc2c(C)cccc2C)c1OC was tested, and the inhibition was “inactive”.
With Cc1cccc(C)c1NC(=O)NN the inhibition was “inactive”.
With Cc1cccc(C)c1NC(=O)N/N=C/c1ccccc1 the inhibition was “inactive”.
Cc1cccc(C)c1NC(=S)N/N=C/c1c(F)cc(Br)cc1F was tested, and the inhibition was “inactive”.

These compounds were tested against T1, Antrax lethal toxin (Bacillus anthracis) (assay: Irreversible inhibition of Bacillus anthracis lethal toxin-induced mouse RAW264.7 cell death at 12.5 uM preincubated for 1 hr followed by UV irradiation measured after 5 mins). Settings: not given.
Assay type: protein-complex assay
In the case of Cc1cccc(C)c1NC(=O)N/N=C/c1ccc(N=[N+]=[N-])cc1F, the inhibition is reported as “inactive”.

What follows are compounds tested against T1, Antrax lethal toxin (Bacillus anthracis) (assay: Reversible inhibition of Bacillus anthracis lethal toxin-induced mouse RAW264.7 cell death at 12.5 uM preincubated for 1 hr followed by compound washout measured 4 hrs post lethal toxin challenge). Settings: not given.
Assay type: protein-complex assay
In the case of Cc1cccc(C)c1NC(=O)N/N=C/c1ccc(N=[N+]=[N-])cc1F, the inhibition is reported as “Active”.

Each compound was assayed against T1, Antrax lethal toxin (Bacillus anthracis) (assay: Reversible inhibition of Bacillus anthracis lethal toxin-induced mouse RAW264.7 cell death at 25 uM preincubated for 1 hr followed by compound washout measured 4 hrs post lethal toxin challenge). Settings: not given.
Assay type: protein-complex assay
For Cc1cccc(C)c1NC(=O)N/N=C/c1c(F)c(F)c(N=[N+]=[N-])c(F)c1F, the inhibition was “Active”.
In the case of Cc1cccc(C)c1NC(=O)N/N=C/c1ccc(N=[N+]=[N-])cc1, the inhibition is reported as “Active”.

Each compound was assayed against T1, Antrax lethal toxin (Bacillus anthracis) (assay: Irreversible inhibition of Bacillus anthracis lethal toxin-induced mouse RAW264.7 cell death at 25 uM preincubated for 1 hr followed by UV irradiation measured after 5 mins). Settings: not given.
Assay type: protein-complex assay
With Cc1cccc(C)c1NC(=O)N/N=C/c1c(F)c(F)c(N=[N+]=[N-])c(F)c1F the inhibition was “Active”.
In the case of Cc1cccc(C)c1NC(=O)N/N=C/c1ccc(N=[N+]=[N-])cc1, the inhibition is reported as “Active”.
